Data as given in patent publication EP0369388B1, “Hydroxy-1,2,3,4-tetrahydroaminoacridines, a process for their preparation and their use as medicaments” (HOECHST-ROUSSEL PHARMACEUTICALS INCORPORATED, priority 1988, dated 1990).
Structures can show the parent of a compound that is named as a salt.

system: mice; experiment: Dark Avoidance Assay (reversal of scopolamine induced memory deficit); assay type: in vivo; settings: Dose 0.63 mg/kg of body weight, s.c; mice, retest after 24 hours
Procedure: This utility can also be ascertained by determining the ability of these compounds to restore cholinergically deficient memory in the Dark Avoidance Assay. In this assay mice are tested for their ability to remember an unpleasant stimulus for a period of 24 hours. A mouse is placed in a chamber that contains a dark compartment; a strong incadescent light drives it to the dark compartment, where an electric shock is administered through metal plates on the floor. The animal is removed from the testing apparatus and tested again, 24 hours later, for the ability to remember the electric shock.
If scopolamine, an anticholinergic that is known to cause memory impairment, is administered before an animal's initial exposure to the test chamber, the animal re-enters the dark compartment shortly after being placed in the test chamber 24 hours later. This effect of scopolamine is blocked by an active test compound, resulting in a greater interval before re-entry into the dark compartment.
The results for an active compound are expressed as the percent of a group of animals in which the effect of scopolamine is blocked, as manifested by an increased interval between being placed in the test chamber and re-entering the dark compartment.

For `CCCCCC(=O)OC1CCc2nc3ccccc3c(N)c2C1.O=C(O)/C=C/C(=O)O` (stereo not shown) [2-Hexanoyloxy-1,2,3,4-tetrahydro-9-acridinamine, fumarate], the “% of Animals with Scopolamine Induced Memory Deficit Reversal” value (“% of Animals” below) was 25%.

same assay, conditions: Dose 5.0 mg/kg of body weight, s.c; mice, retest after 24 hours

Point of comparison: `Nc1c2c(nc3ccccc13)CCC(O)C2.O=C(O)/C=C\C(=O)O` (stereo not shown) [9-Amino-1,2,3,4-tetrahydroacridin-2-ol, maleate], “% of Animals” value 20%. Against it:
- CC(=O)OC1CCc2nc3ccccc3c(N)c2C1 (stereo not shown) [2-Acetoxy-1,2,3,4-tetrahydro-9-acridinamine] — higher, 29%
- CCC(=O)OC1CCc2nc3ccccc3c(N)c2C1 (stereo not shown) [2-Propionyloxy-1,2,3,4-tetrahydro-9-acridinamine, fumarate hemihydrate] — lower, 13%

same assay, conditions: mouse, in vivo, 0.31 mg/kg

`CNC(=O)Oc1ccc2c(c1)[C@]1(C)CCN(C)[C@@H]1N2C` [Physostigmine, reference compound] was tested, and the “% of Animals” value was 20%.

target: acetylcholinesterase (Homo sapiens, UniProt P22303); experiment: biochemical; settings: not given
Sequence (P22303 32-614): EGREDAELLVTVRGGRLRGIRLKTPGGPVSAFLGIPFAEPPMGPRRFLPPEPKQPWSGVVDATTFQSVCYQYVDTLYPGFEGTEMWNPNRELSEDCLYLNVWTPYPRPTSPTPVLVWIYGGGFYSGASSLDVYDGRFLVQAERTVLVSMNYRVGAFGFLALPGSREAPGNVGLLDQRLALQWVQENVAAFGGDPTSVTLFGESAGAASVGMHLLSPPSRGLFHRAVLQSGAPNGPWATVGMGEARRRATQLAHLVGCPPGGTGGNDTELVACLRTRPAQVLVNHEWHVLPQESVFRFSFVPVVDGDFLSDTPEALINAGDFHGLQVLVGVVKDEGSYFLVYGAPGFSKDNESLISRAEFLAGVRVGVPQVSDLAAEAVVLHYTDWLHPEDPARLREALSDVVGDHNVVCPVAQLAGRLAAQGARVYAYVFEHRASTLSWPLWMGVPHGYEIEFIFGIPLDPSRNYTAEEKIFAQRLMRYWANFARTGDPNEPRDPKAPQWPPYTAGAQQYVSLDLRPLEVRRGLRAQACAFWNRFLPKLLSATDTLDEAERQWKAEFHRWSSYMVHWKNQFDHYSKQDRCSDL
Procedure: The ability to inhibit acetylchlinesterase was determined by the photometric method of Ellman et al., Biochem. pharmacol.

Point of comparison: `CCCCCCCC(=O)OC1CCc2nc3ccccc3c(N)c2C1` (stereo not shown) [2-Octanoyloxy-1,2,3,4-tetrahydro-9-acridinamine, fumarate], IC50 23 µM. Against it:
- Nc1c2c(nc3ccccc13)CCC(OCc1ccccc1)C2 (stereo not shown) [2-Benzyloxy-1,2,3,4-tetrahydro-9-acridinamine] — higher, > 1000 µM
- Nc1c2c(nc3ccccc13)C(OCc1ccccc1)CCC2 (stereo not shown) [4-Benzyloxy-1,2,3,4-tetrahydro-9-acridinamine] — 36-fold higher, 820 µM
- CCCCC(=O)OC1CCc2nc3ccccc3c(N)c2C1 (stereo not shown) [2-Valeryloxy-1,2,3,4-tetrahydro-9-acridinamine, fumarate] — 1.9-fold lower, 12 µM
- CCCCCCCCCC(=O)OC1CCc2nc3ccccc3c(N)c2C1 (stereo not shown) [2-Decanoyloxy-1,2,3,4-tetrahydro-9-acridinamine, fumarate] — higher, > 1000 µM
- CCCC(=O)OC1CCc2nc3ccccc3c(N)c2C1 (stereo not shown) [2-Butyryloxy-1,2,3,4-tetrahydro-9-acridinamine, fumarate] — 4.8-fold lower, 4.8 µM
- CCCCCCCCCCCC(=O)OC1CCc2nc3ccccc3c(N)c2C1 (stereo not shown) [2-Lauroyloxy-1,2,3,4-tetrahydro-9-acridinamine] — 7-fold higher, 160 µM

same assay, conditions: Acetylcholinesterase Inhibition; read-out: IC50 (molar conc.)

Point of comparison: `CCCCCCC(=O)OC1CCc2nc3ccccc3c(N)c2C1` (stereo not shown) [2-Heptanoyloxy-1,2,3,4-tetrahydro-9-acridinamine, fumarate], IC50 31 µM. Against it:
- CN(C)C=Nc1c2c(nc3ccccc13)CCC(O)C2 (stereo not shown) [2-Hydroxy-N-(dimethylaminomethylene)-1,2,3,4-tetrahydro-9-acridinamine] — higher, > 1000 µM
- CC(=O)OC1CCc2nc3ccccc3c(N)c2C1 (stereo not shown) [2-Acetoxy-1,2,3,4-tetrahydro-9-acridinamine] — 4.8-fold lower, 6.5 µM
- Nc1c2c(nc3ccccc13)CCC(O)C2.O=C(O)/C=C\C(=O)O (stereo not shown) [9-Amino-1,2,3,4-tetrahydroacridin-2-ol, maleate] — 5.8-fold lower, 5.3 µM
- CCCCCCCCC(=O)OC1CCc2nc3ccccc3c(N)c2C1 (stereo not shown) [2-Nonanoyloxy-1,2,3,4-tetrahydro-9-acridinamine, fumarate] — higher, > 1000 µM
- CCCCCC(=O)OC1CCc2nc3ccccc3c(N)c2C1.O=C(O)/C=C/C(=O)O (stereo not shown) [2-Hexanoyloxy-1,2,3,4-tetrahydro-9-acridinamine, fumarate] — 1.6-fold lower, 19 µM
- Nc1c2c(nc3ccccc13)C(O)CCC2 (stereo not shown) [9-Amino-1,2,3,4-tetrahydroacridinamin-4-ol, hemifumarate] — 16-fold lower, 1.9 µM
